Series [1] deals with MDR1 (ABCB1, P-glycoprotein) (Homo sapiens, UniProt P08183). Briefly: Substrate activity at human MDR1 expressed in LLC-PK1 cells assessed as efflux ratio of permeability across basolateral to apical over apical to basolateral side at 5 uM. The class given is ADME, cell-based.
Series [2] addresses Sphingosine kinase 1 (Homo sapiens, UniProt Q9NYA1). Briefly: Inhibition of full-length recombinant human GST-tagged SPHK1 by Z'-LYTE assay.
The target of series [3] is Receptor tyrosine-protein kinase erbB-2 (Homo sapiens, UniProt P04626). Briefly: Inhibition of recombinant human His-tagged cytoplasmic ERBB2 expressed in baculovirus expression system by Z'-LYTE assay.
Series [4] has as its target Tyrosine-protein kinase BTK (Homo sapiens, UniProt Q06187). Description: Inhibition of full-length recombinant human His-tagged BTK expressed in baculovirus expression system by Z'-LYTE assay.
Series [5] has as its target T1, Cytoplasmic tyrosine-protein kinase BMX (Homo sapiens, UniProt P51813).
T1 sequence (P51813 whole entry): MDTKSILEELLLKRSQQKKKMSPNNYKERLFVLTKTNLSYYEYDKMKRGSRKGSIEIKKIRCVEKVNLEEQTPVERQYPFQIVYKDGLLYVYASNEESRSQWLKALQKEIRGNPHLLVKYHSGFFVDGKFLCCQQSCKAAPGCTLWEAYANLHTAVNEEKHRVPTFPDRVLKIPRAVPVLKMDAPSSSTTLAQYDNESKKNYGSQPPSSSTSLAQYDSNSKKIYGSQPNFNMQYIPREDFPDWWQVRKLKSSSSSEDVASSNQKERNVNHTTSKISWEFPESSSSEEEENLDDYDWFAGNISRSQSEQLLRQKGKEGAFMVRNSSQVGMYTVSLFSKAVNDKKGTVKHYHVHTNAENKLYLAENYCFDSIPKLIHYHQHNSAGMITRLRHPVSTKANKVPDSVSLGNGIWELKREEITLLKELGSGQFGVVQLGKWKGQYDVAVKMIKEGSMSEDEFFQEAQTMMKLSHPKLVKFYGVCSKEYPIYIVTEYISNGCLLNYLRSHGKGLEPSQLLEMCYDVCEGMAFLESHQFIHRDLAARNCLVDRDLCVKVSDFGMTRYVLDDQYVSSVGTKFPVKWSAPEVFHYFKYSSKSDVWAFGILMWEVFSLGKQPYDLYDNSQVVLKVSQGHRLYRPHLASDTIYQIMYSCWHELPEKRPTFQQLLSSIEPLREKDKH
Briefly: Inhibition of full-length recombinant human His-tagged BMX expressed in baculovirus expression system by Z'-LYTE assay.

The target in series [6] is Protein kinase C theta type (Homo sapiens, UniProt Q04759). Description: Inhibition of full-length recombinant human His-tagged PRKCQ expressed in baculovirus expression system by Z'-LYTE assay.
The target in series [7] is Cyclin-dependent kinase 7 (Homo sapiens, UniProt P50613). Description: Inhibition of full-length recombinant human His-tagged CDK7 expressed in baculovirus expression system by Adapta assay.
In series [8] the target is Tyrosine-protein kinase Lck (Homo sapiens, UniProt P06239). Briefly: Inhibition of full-length recombinant human His-tagged LCK expressed in baculovirus expression system by Z'-LYTE assay.
For series [9], the target named is NT-3 growth factor receptor (Homo sapiens, UniProt Q16288). Description: Inhibition of recombinant human His-tagged cytoplasmic NTRK3 expressed in baculovirus expression system by Z'-LYTE assay.
In series [10] the target is Death-associated protein kinase 1 (Homo sapiens, UniProt P53355). Briefly: Inhibition of recombinant human GST-tagged DAPK1 catalytic domain expressed in baculovirus expression system by Adapta assay.
Series [11] has as its target T2, Mitogen-activated protein kinase 13 (Homo sapiens, UniProt O15264).
T2 sequence (O15264 whole entry): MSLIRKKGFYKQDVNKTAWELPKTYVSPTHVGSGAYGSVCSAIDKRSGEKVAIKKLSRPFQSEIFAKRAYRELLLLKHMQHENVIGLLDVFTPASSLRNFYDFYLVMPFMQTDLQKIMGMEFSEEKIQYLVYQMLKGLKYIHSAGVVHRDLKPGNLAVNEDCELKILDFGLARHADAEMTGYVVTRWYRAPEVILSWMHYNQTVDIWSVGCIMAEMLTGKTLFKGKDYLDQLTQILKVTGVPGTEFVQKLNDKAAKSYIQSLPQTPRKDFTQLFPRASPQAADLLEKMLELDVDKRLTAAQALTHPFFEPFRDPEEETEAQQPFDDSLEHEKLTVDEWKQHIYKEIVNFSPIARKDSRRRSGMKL
Briefly: Inhibition of full-length recombinant human His-tagged MAPK13 expressed in baculovirus expression system by Z'-LYTE assay.

Series [12] concerns the target Serine/threonine-protein kinase MRCK alpha (Homo sapiens, UniProt Q5VT25). Description: Inhibition of recombinant human His-tagged CDC42BPA catalytic domain expressed in baculovirus expression system by Z'-LYTE assay.
In series [13] the target is T3, Serine/threonine-protein kinase Sgk1 (Homo sapiens, UniProt O00141).
T3 sequence (O00141 whole entry): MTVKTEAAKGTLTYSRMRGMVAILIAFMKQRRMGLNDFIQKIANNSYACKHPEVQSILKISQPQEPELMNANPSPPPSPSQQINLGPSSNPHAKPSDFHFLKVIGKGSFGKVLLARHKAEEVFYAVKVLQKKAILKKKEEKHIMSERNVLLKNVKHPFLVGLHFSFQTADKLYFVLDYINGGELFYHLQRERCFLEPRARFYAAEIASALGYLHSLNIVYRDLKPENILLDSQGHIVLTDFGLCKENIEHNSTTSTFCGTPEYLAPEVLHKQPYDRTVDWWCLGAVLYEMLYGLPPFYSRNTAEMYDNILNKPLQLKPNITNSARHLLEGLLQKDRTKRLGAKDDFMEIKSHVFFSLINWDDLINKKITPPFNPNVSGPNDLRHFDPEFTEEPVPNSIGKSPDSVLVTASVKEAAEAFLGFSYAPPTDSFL
Description: Inhibition of recombinant human GST-tagged SGK catalytic domain expressed in baculovirus expression system by Z'-LYTE assay.

Series [14] in a line: Clearance in Sprague-Dawley rat at 1 mL/kg, iv administered through catheter measured after 24 hrs by LC-MS/MS analysis. The class given is ADME, organism-based. As to conditions: in vivo.
For series [15], the target named is Vascular endothelial growth factor receptor 2 (Homo sapiens, UniProt P35968). Briefly: Inhibition of recombinant human His-tagged cytoplasmic KDR expressed in baculovirus expression system by Z'-LYTE assay.
Series [16] has as its target Mitogen-activated protein kinase 9 (Homo sapiens, UniProt P45984). Briefly: Inhibition of full-length recombinant human His-tagged MAPK9 expressed in baculovirus expression system by Z'-LYTE assay.
Series [17] deals with MAP/microtubule affinity-regulating kinase 3 (Homo sapiens, UniProt P27448). Briefly: Inhibition of full-length recombinant human GST-tagged MARK3 expressed in baculovirus expression system using biotinylated-Cdc25C peptide substrate measured after 2 hrs by HTRF assay. For orientation: In TR-FRET formats the signal depends on donor and acceptor labels being close together.

The text below walks through data of ChEMBL document CHEMBL4477252, “Optimization of microtubule affinity regulating kinase (MARK) inhibitors with improved physical properties” (Bioorg Med Chem Lett, 2016).

Sequence of NT-3 growth factor receptor (Q16288 whole entry, the tested form may be a part): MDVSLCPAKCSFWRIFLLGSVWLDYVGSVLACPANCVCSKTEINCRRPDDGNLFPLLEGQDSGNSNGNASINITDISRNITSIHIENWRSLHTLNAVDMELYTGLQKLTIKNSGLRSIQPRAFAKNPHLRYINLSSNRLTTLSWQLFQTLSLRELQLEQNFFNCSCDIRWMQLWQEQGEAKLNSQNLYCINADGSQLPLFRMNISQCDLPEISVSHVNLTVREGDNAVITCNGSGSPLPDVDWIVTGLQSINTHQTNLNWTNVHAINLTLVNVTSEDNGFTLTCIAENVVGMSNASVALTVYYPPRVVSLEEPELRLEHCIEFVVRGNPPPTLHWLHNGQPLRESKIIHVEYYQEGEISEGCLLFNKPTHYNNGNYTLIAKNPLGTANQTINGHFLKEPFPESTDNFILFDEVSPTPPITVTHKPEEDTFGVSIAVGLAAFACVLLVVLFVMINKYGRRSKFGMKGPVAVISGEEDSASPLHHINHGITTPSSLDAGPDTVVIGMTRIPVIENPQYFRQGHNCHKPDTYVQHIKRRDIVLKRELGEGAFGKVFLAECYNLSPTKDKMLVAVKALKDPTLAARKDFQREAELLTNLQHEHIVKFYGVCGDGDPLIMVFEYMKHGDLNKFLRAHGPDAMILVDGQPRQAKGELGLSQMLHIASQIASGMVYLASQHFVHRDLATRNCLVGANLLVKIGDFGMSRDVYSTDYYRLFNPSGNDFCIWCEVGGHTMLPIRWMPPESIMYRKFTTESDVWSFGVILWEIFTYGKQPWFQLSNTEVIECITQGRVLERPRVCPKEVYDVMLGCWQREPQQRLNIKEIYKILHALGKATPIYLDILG
Sequence of Tyrosine-protein kinase BTK (Q06187 whole entry): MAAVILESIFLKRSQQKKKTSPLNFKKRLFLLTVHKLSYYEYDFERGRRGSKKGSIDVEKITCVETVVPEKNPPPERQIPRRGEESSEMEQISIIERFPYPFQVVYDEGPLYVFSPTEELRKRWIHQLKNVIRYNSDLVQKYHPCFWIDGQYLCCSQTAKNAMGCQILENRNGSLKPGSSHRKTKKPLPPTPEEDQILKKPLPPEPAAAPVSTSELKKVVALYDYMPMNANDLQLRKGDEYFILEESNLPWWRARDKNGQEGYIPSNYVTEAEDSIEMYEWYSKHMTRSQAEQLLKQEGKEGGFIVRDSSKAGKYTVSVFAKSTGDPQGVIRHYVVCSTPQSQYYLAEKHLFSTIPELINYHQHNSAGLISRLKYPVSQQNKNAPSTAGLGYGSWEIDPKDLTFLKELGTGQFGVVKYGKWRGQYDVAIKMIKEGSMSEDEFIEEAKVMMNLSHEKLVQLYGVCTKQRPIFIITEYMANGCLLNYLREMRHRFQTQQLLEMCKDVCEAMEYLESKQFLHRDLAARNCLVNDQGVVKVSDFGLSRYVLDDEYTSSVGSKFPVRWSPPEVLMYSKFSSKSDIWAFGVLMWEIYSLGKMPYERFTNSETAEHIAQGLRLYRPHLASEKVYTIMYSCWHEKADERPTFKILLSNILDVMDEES
Sequence of Death-associated protein kinase 1 (P53355 whole entry, the tested form may be a part): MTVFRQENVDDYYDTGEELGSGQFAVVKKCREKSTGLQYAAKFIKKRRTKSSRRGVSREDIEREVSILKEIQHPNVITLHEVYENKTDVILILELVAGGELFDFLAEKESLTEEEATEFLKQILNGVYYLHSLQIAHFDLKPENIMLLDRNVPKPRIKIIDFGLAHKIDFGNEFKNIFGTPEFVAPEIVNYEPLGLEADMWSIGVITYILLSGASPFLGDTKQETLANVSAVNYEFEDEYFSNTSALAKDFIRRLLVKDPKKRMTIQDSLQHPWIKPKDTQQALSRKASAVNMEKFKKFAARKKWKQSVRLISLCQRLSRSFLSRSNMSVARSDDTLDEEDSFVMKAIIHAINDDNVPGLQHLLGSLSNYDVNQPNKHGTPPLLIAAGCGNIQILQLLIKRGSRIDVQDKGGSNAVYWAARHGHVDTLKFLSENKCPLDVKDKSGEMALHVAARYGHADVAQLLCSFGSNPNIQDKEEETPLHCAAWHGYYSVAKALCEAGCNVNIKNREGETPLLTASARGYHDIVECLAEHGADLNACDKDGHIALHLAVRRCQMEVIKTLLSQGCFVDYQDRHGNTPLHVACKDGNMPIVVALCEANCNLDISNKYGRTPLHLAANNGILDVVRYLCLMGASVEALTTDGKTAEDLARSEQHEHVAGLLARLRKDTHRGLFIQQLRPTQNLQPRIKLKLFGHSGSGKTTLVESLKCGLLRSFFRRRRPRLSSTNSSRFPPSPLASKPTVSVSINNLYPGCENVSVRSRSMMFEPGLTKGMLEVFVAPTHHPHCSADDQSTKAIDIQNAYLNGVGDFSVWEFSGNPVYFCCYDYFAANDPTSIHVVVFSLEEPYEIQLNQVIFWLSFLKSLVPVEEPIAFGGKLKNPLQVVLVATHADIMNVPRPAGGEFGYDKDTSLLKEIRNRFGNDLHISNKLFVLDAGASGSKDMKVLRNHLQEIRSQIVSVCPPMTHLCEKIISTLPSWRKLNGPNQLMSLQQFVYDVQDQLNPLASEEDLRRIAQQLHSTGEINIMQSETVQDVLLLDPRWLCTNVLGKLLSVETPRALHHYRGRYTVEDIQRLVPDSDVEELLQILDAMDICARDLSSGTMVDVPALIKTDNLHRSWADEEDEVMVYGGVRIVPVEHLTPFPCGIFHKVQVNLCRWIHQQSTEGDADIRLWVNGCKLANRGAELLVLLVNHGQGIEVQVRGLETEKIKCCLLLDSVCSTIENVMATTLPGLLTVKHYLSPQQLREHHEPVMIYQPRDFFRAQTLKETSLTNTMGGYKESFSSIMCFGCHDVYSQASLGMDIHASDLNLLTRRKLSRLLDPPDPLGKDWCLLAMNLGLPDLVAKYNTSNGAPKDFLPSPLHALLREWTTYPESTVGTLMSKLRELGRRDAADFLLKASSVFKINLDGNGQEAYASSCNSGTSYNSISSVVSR
Sequence of Serine/threonine-protein kinase MRCK alpha (Q5VT25 whole entry, the tested form may be a part): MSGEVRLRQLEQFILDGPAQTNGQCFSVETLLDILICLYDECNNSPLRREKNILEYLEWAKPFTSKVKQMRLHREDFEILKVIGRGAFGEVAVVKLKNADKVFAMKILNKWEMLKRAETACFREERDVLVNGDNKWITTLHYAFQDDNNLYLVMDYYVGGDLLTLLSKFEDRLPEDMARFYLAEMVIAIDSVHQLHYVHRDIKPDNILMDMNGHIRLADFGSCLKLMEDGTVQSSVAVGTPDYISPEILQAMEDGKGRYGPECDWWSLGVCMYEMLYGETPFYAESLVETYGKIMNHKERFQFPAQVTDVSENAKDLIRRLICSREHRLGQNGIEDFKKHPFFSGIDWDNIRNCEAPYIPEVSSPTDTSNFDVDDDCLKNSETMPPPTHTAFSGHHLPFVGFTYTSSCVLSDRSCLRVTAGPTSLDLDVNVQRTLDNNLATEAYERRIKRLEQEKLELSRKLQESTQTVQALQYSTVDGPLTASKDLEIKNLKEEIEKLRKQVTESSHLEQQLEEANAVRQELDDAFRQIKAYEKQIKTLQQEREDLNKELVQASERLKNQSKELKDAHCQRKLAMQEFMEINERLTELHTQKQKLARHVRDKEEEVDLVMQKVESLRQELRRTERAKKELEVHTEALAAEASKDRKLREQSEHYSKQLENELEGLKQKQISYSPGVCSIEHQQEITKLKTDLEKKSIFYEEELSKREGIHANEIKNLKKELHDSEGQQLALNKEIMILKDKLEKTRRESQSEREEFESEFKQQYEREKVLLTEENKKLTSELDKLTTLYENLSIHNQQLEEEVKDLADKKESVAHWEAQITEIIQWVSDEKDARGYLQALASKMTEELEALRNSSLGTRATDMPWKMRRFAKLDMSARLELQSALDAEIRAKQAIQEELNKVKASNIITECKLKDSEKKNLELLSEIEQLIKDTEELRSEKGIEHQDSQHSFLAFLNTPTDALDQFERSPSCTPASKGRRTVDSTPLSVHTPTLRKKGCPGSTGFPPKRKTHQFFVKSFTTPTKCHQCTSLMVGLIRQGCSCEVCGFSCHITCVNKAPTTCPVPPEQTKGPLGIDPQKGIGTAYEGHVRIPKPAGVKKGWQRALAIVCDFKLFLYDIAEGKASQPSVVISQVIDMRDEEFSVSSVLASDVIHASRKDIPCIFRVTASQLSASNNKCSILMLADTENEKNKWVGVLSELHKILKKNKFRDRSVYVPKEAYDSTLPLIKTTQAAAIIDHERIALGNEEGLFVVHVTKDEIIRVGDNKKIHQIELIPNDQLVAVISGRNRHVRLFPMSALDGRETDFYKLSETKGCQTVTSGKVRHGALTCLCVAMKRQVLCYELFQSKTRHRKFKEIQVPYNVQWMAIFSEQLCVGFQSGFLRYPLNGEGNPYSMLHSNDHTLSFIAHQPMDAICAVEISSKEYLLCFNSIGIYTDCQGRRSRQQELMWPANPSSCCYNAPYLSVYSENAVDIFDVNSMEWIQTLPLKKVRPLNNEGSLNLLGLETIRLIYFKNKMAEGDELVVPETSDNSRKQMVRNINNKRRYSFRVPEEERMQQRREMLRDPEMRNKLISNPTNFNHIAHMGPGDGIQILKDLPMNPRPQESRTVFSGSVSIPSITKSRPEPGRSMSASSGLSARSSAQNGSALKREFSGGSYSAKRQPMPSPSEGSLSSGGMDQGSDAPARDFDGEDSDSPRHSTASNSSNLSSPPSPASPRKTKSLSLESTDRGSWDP
Sequence of Cyclin-dependent kinase 7 (P50613 whole entry): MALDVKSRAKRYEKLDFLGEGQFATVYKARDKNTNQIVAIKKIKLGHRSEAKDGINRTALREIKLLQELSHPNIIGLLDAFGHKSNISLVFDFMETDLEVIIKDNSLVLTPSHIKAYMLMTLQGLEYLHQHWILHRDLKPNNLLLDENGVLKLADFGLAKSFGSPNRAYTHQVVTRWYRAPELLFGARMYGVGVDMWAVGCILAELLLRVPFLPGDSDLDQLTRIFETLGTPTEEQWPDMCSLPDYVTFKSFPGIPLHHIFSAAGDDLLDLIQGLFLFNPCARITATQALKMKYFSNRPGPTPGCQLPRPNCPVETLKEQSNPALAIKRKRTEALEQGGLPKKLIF

Regarding `Cn1cc(-c2cnc3c(-c4csc(C(=O)NCC(F)(F)F)c4)cnn3c2)cn1`, the efflux ratio (usually the permeability from basolateral to apical divided by that in the opposite direction, in the common usage) at 5 µM in series [1] amounted to 1.4. Besides, the IC50 (usually the point on the concentration scale where inhibition reaches its midpoint) in series [2] is greater than 100000 nM; in series [3], greater than 100000 nM; in series [4], 360 nM; in series [5], 270 nM; in [6] it was greater than 100000 nM; in series [7], 53 nM. For the same compound, the IC50 in series [8] is 37 nM; in [9], 120 nM; in series [10], less than 10 nM; in series [11] it was 2200 nM; in series [12], 9200 nM; in series [13], 63 nM. Moreover, the IC50 in [15] worked out at 15 nM; in series [16], 1700 nM; in [17], 6 nM. Moreover, in series [14], the clearance (commonly the rate of elimination divided by the concentration) turned out to be 7.4 mL/min/kg.
Turning to `Cc1sc(C(=O)N[C@@H]2[C@H](N)CCCC2(F)F)cc1-c1cnn2cc(Cl)cnc12`, the efflux ratio at 5 µM in series [1] is 2.9. For the same compound, the IC50 in series [2] is greater than 100000 nM; in series [3] it was greater than 100000 nM; in [4], 13000 nM; in series [5], 9800 nM; in series [6], 8700 nM; in series [7] it was less than 10 nM. Besides, the IC50 in [8] was 5000 nM; in [9] it was 1400 nM; in series [10], 26 nM; in series [11], 160 nM; in series [12], 1000 nM; in series [13] it was 810 nM. The IC50 was determined as 11000 nM in series [15], 4400 nM in [16] and 5 nM in [17]. The compound also returned a clearance in series [14] of 19 mL/min/kg.
For `O=C(NCC(F)(F)F)c1cc(-c2cnn3cc(-c4ccc(OCCN5CCCCC5)cc4)cnc23)cs1`, the IC50 in [2] stood at 32000 nM; in [3], 35000 nM; in series [4] it was 290 nM; in series [5], 410 nM; in [6], 6600 nM; in series [7], 30 nM. For the same compound, the IC50 is 19 nM in [8]; 380 nM in [9]; less than 10 nM in series [10]; 13000 nM in series [11]; 1200 nM in series [12]; 27 nM in series [13]. In addition, the values for the IC50 in series [15], in [16] and in series [17] were less than 10 nM, 850 nM and 1 nM, respectively. The same compound returned a clearance in series [14] of 32 mL/min/kg.
As to `Cn1cc(-c2cnc3c(-c4csc(C(=O)N[C@@H]5CCCC[C@@H]5N)c4)cnn3c2)cn1` (racemic), in series [1], the efflux ratio at 5 µM was 24. The IC50 is greater than 10000 nM in series [2]; 1000 nM in series [3]; less than 1 nM in [4]; 3.5 nM in [5]; 270 nM in series [6]; 4.1 nM in [7]. For the same compound, the IC50 in series [8] was found to be 3.9 nM; in series [9], 13 nM; in series [10], 1.9 nM; in series [11], 39 nM; in series [12], 72 nM; in series [13], 200 nM. Also, the figures for the IC50 in [15], in series [16] and in [17] were 3.5 nM, 640 nM and no more than 0.5 nM, respectively.
